Laboratory results published in patent publication US8835644B2, “Broad spectrum benzothiophene-nitrothiazolide and other antimicrobials” (University of Virginia Patent Foundation, priority 2009, dated 2014).
≈ marks a conversion by molar mass, not a printed value.

Assays:
[1] = system: S. aureus and S. epidermidis strains; test: MIC by microdilution in TSB, staphylococcal strains; type: cell-based, Staphylococcus epidermidis; conditions: Staphylococcus aureus; staphylococcal strains incl. MRSA S. aureus, microdilution in TSB; read-out: MIC
Method: Minimal inhibitory concentration testing of NTZ was done in sterile round bottom 96 well microtiter polystyrene plates (Corning Inc., Corning, N.Y.) by microdilution. Tizoxanide TIZ (deacetylated form of NTZ), denitro-NTZ (TIZ without 5-nitro group) and amoxanide AMIX (TIZ-ethylamine) were also tested. Bacteria were grown overnight and suspended in fresh TSB to an OD600 of 0.01 and 100 μl were dispensed into wells with the first well containing 200 μA NTZ and other antibiotics (DMSO control) were added to well one and serially diluted from 32 μg/ml. All compounds were tested in triplicate and plates were read visually or with a plate reader (Molecular Devices) at 8, 12 and at 24 h. MIC was determined as the first well in which no visible bacterial growth was noted relative to controls. Drug effects on aerobic growth were determined in 125 ml flasks containing 25 ml of TSB medium and following inoculation (detailed above), flasks were on a gyrorotary shaker (200 rpm) at 37° C. Final concentrations of NTZ were 0, 10 and 25 μg/ml and samples were removed at hourly intervals and absorbance determined at 600 nm.

[2] = system: EAEC 042 (AAF/II fimbriae); test: Hemagglutination of sheep erythrocytes, EAEC 042; type: cell-based, Escherichia coli; conditions: EAEC 042 grown in MinA-G with 20 μg/ml NTZ; also: key: +++ = strong hemagglutination reaction; + weak; − no hemagglutination
Method: HA assays were performed in 96-well microplates as described in (1). Bacteria grown over night without shaking ([…]) were suspended in PBS and diluted to OD660 of […] was mixed with an equal volume of 3% (vol/vol) sheep erythrocyte suspension containing 1% mannose, except when type I fimbriae producing strains were assayed. In the latter, bacteria were grown statically in LB medium (with and without NTZ) for 48 h and HA was determined with guinea pig erythrocytes. HA reactions were incubated at 4° C. for […] HA was determined visually against controls receiving no NTZ. All assays were prepared in triplicate and repeated twice.

CC(=O)Oc1ccccc1C(=O)Nc1ncc([N+](=O)[O-])s1 [Nitazoxanide, 2-(acetyloxy)-N-(5-nitro-2-thiazolyl)benzamide, reference compound]
MIC [1]: 8 to 16 µg/mL (≈ 26 to 52.1 µM)
HA (sheep erythrocytes), bacterial OD660 0.5 [2]: −
HA (sheep erythrocytes), bacterial OD660 1.0 [2]: −
HA (sheep erythrocytes), bacterial OD660 1.5 [2]: +
